Assay results as given in patent publication US8445501B2, “Substituted 7-carboxamido-pyrrolo[3,2-d]pyrimidines” (Takeda GmbH, priority 2008, dated 2013).
pIC50: −log10 of the molar value.

biological target: T1, human PDE5 (Homo sapiens, UniProt O76074); assay: Inhibition of the type 5 phosphodiesterase (PDE5) activity, modified SPA test with platelet lysate; assay type: biochemical; conditions: PDE5 from human platelet lysate, 0.5 μM cGMP
T1 construct: from tissue; host or cells: platelets from fresh blood of human donors (lysate, 10,000 g supernatant)
Outline: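 SPA-based cGMP hydrolysis, [3H]cGMP tracer in 0.5 μM cGMP, by sonicated human platelet lysate; motapizone (1 μM) and a PDE2 inhibitor (10 nM) block other PDEs. Reaction 15 min at 37 °C after 5 min preincubation, quenched with beads containing IBMX. IC50 from concentration-effect curves.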

| SMILES | pIC50 |
| --- | --- |
| COc1ccc(OCC2CC2)c(-c2ncnc3c(C(=O)N[C@H]4CC[C@@H](NC(=O)CO)CC4)c[nH]c23)c1 [Example 208, cis-4-(2-Cyclopropylmethoxy-5-methoxy-phenyl)-5H-pyrrolo[3,2-d]pyrimidine-7-carboxylic acid [4-(2-hydroxy-acetylamino)-cyclohexyl]-amide] | 8.73 |
| COc1ccc(OCC2CC2)c(-c2ncnc3c(C(=O)NC4CCN(C(=O)CO)CC4)c[nH]c23)c1 [Example 211, 4-(2-Cyclopropylmethoxy-5-methoxy-phenyl)-5H-pyrrolo[3,2-d]pyrimidine-7-carboxylic acid [1-(2-hydroxy-acetyl)piperidin-4-yl]-amide] | 8.63 |
| O=C(CO)N[C@H]1CC[C@@H](NC(=O)c2c[nH]c3c(-c4ccc(F)cc4OCC4CC4)ncnc23)CC1 [Example 214, cis-4-(2-Cyclopropylmethoxy-4-fluoro-phenyl)-5H-pyrrolo[3,2-d]pyrimidine-7-carboxylic acid [4-(2-hydroxy-acetylamino)-cyclohexyl]-amide] | 8.58 |
| C[C@H](O)C(=O)N[C@H]1CC[C@@H](NC(=O)c2c[nH]c3c(-c4ccc(F)cc4OCC4CC4)ncnc23)CC1 [Example 215, cis-4-(2-Cyclopropylmethoxy-4-fluoro-phenyl)-5H-pyrrolo[3,2-d]pyrimidine-7-carboxylic acid [4-((S)-2-hydroxy-propionylamino)-cyclohexyl]-amide] | 8.59 |
| O=C(N[C@H]1CC[C@@H](NC(=O)C2(O)CC2)CC1)c1c[nH]c2c(-c3ccc(F)cc3OCC3CC3)ncnc12 [Example 216, cis-4-(2-Cyclopropylmethoxy-4-fluoro-phenyl)-5H-pyrrolo[3,2-d]pyrimidine-7-carboxylic acid {4-[(1-hydroxy-cyclopropanecarbonyl)-amino]-cyclohexyl}-amide] | 8.82 |
| O=C(CO)N[C@H]1CC[C@H](NC(=O)c2c[nH]c3c(-c4ccc(F)cc4OCC4CC4)ncnc23)CC1 [Example 217, trans-4-(2-Cyclopropylmethoxy-4-fluoro-phenyl)-5H-pyrrolo[3,2-d]pyrimidine-7-carboxylic acid [4-(2-hydroxy-acetylamino)-cyclohexyl]-amide] | 8.65 |
| C[C@H](O)C(=O)N[C@H]1CC[C@H](NC(=O)c2c[nH]c3c(-c4ccc(F)cc4OCC4CC4)ncnc23)CC1 [Example 218, trans-4-(2-Cyclopropylmethoxy-4-fluoro-phenyl)-5H-pyrrolo[3,2-d]pyrimidine-7-carboxylic acid [4-((S)-2-hydroxy-propionylamino)-cyclohexyl]-amide] | 8.60 |
| O=C(N[C@H]1CC[C@H](NC(=O)C2(O)CC2)CC1)c1c[nH]c2c(-c3ccc(F)cc3OCC3CC3)ncnc12 [Example 219, trans-4-(2-Cyclopropylmethoxy-4-fluoro-phenyl)-5H-pyrrolo[3,2-d]pyrimidine-7-carboxylic acid {4-[(1-hydroxy-cyclopropanecarbonyl)-amino]-cyclohexyl}-amide] | 8.70 |
| O=C(NC1CCN(C(=O)CO)CC1)c1c[nH]c2c(-c3cc(F)ccc3OCC3CC3)ncnc12 [Example 220, 4-(2-Cyclopropylmethoxy-5-fluoro-phenyl)-5H-pyrrolo[3,2-d]pyrimidine-7-carboxylic acid [1-(2-hydroxy-acetyl)piperidin-4-yl]-amide] | 8.13 |
| C[C@H](O)C(=O)N1CCC(NC(=O)c2c[nH]c3c(-c4cc(F)ccc4OCC4CC4)ncnc23)CC1 [Example 221, 4-(2-Cyclopropylmethoxy-5-fluoro-phenyl)-5H-pyrrolo[3,2-d]pyrimidine-7-carboxylic acid [1-((S)-2-hydroxy-propionyl)piperidin-4-yl]-amide] | 8.19 |
| O=C(CO)N[C@H]1CC[C@H](NC(=O)c2c[nH]c3c(-c4cc(F)ccc4OCC4CC4)ncnc23)CC1 [Example 222, trans-4-(2-Cyclopropylmethoxy-5-fluoro-phenyl)-5H-pyrrolo[3,2-d]pyrimidine-7-carboxylic acid [4-(2-hydroxy-acetylamino)-cyclohexyl]-amide] | 8.72 |
| O=C(CO)N[C@H]1CC[C@H](NC(=O)c2c[nH]c3c(-c4ccccc4OCC4CC4)ncnc23)CC1 [Example 224, trans-4-(2-Cyclopropylmethoxy-phenyl)-5H-pyrrolo[3,2-d]pyrimidine-7-carboxylic acid [4-(2-hydroxy-acetylamino)-cyclohexyl]-amide] | 8.16 |
| C[C@H](O)C(=O)N[C@H]1CC[C@H](NC(=O)c2c[nH]c3c(-c4ccccc4OCC4CC4)ncnc23)CC1 [Example 225, trans-4-(2-Cyclopropylmethoxy-phenyl)-5H-pyrrolo[3,2-d]pyrimidine-7-carboxylic acid [4-((S)-2-hydroxy-propionylamino)-cyclohexyl]-amide] | 8.15 |
| O=C(N[C@H]1CC[C@H](NC(=O)C2(O)CC2)CC1)c1c[nH]c2c(-c3ccccc3OCC3CC3)ncnc12 [Example 226, trans-4-(2-Cyclopropylmethoxy-phenyl)-5H-pyrrolo[3,2-d]pyrimidine-7-carboxylic acid {4-[(1-hydroxy-cyclopropanecarbonyl)-amino]-cyclohexyl}-amide] | 8.47 |
| C[C@H](O)C(=O)N1CCC(NC(=O)c2c[nH]c3c(-c4ccccc4OCC4CC4)ncnc23)CC1 [Example 227, 4-(2-Cyclopropylmethoxy-phenyl)-5H-pyrrolo[3,2-d]pyrimidine-7-carboxylic acid [1-((S)-2-hydroxy-propionyl)-piperidin-4-yl]-amide] | 7.85 |

The next compounds have a higher pIC50 than those just listed; values first:

| pIC50 | SMILES |
| --- | --- |
| 9.61 | COc1ccc(-c2ncnc3c(C(=O)NC4CCN(C(=O)C5(O)CC5)CC4)c[nH]c23)c(OCC2CC2)c1 [Example 207, 4-(2-Cyclopropylmethoxy-4-methoxy-phenyl)-5H-pyrrolo[3,2-d]pyrimidine-7-carboxylic acid {1-[1-(1-hydroxy-cyclopropyl)-methanoyl]-piperidin-4-yl}-amide] |
| 9.16 | COc1ccc(OCC2CC2)c(-c2ncnc3c(C(=O)N[C@H]4CC[C@@H](NC(=O)C5(O)CC5)CC4)c[nH]c23)c1 [Example 209, cis-4-(2-Cyclopropylmethoxy-5-methoxy-phenyl)-5H-pyrrolo[3,2-d]pyrimidine-7-carboxylic acid {4-[(1-hydroxy-cyclopropanecarbonyl)-amino]-cyclohexyl}-amide] |
| 9.19 | COc1ccc(OCC2CC2)c(-c2ncnc3c(C(=O)N[C@H]4CC[C@H](NC(=O)C5(O)CC5)CC4)c[nH]c23)c1 [Example 210, trans-4-(2-Cyclopropylmethoxy-5-methoxy-phenyl)-5H-pyrrolo[3,2-d]pyrimidine-7-carboxylic acid {4-[(1-hydroxy-cyclopropanecarbonyl)-amino]-cyclohexyl}-amide] |
| 8.97 | COc1ccc(OCC2CC2)c(-c2ncnc3c(C(=O)NC4CCN(C(=O)[C@H](C)O)CC4)c[nH]c23)c1 [Example 212, 4-(2-Cyclopropylmethoxy-5-methoxy-phenyl)-5H-pyrrolo[3,2-d]pyrimidine-7-carboxylic acid [1-((S)-2-hydroxy-propionyl)piperidin-4-yl]-amide] |
| 9.26 | COc1ccc(OCC2CC2)c(-c2ncnc3c(C(=O)NC4CCN(C(=O)C5(O)CC5)CC4)c[nH]c23)c1 [Example 213, 4-(2-Cyclopropylmethoxy-5-methoxy-phenyl)-5H-pyrrolo[3,2-d]pyrimidine-7-carboxylic acid [1-(1-hydroxy-cyclopropanecarbonyl)-piperidin-4-yl]-amide] |
| 9.79 | COc1cc(-c2ncnc3c(C(=O)NC4CCN(C(=O)[C@H](C)O)CC4)c[nH]c23)c(OCC2CC2)cc1F [Example 228, 4-(2-Cyclopropylmethoxy-4-fluoro-5-methoxy-phenyl)-5H-pyrrolo[3,2-d]pyrimidine-7-carboxylic acid [1-((S)-2-hydroxy-propionyl)-piperidin-4-yl]-amide] |
| 9.70 | COc1cc(-c2ncnc3c(C(=O)N[C@@H]4CCCN(C(=O)CO)C4)c[nH]c23)c(OCC2CC2)cc1F [Example 229, 4-(2-Cyclopropylmethoxy-4-fluoro-5-methoxy-phenyl)-5H-pyrrolo[3,2-d]pyrimidine-7-carboxylic acid [(R)-1-(2-hydroxy-acetyl)piperidin-3-yl]-amide] |
| 9.62 | COc1cc(-c2ncnc3c(C(=O)N[C@@H]4CCCN(C(=O)[C@H](C)O)C4)c[nH]c23)c(OCC2CC2)cc1F [Example 230, 4-(2-Cyclopropylmethoxy-4-fluoro-5-methoxy-phenyl)-5H-pyrrolo[3,2-d]pyrimidine-7-carboxylic acid [(R)-1-((S)-2-hydroxy-propionyl)-piperidin-3-yl]-amide] |
| 9.16 | COc1cc(-c2ncnc3c(C(=O)N[C@@H]4CCN(C(=O)CO)C4)c[nH]c23)c(OCC2CC2)cc1F [Example 231, 4-(2-Cyclopropylmethoxy-4-fluoro-5-methoxy-phenyl)-5H-pyrrolo[3,2-d]pyrimidine-7-carboxylic acid [(R)-1-(2-hydroxy-acetyl)-pyrrolidin-3-yl]amide] |
| 9.45 | COc1cc(-c2ncnc3c(C(=O)N[C@@H]4CCN(C(=O)[C@H](C)O)C4)c[nH]c23)c(OCC2CC2)cc1F [Example 232, 4-(2-Cyclopropylmethoxy-4-fluoro-5-methoxy-phenyl)-5H-pyrrolo[3,2-d]pyrimidine-7-carboxylic acid [(R)-1-((S)-2-hydroxy-propionyl)-pyrrolidin-3-yl]amide] |
| 9.12 | COc1cc(OCC2CC2)c(-c2ncnc3c(C(=O)N[C@H]4CC[C@H](NC(=O)CO)CC4)c[nH]c23)cc1F [Example 233, trans-4-(2-Cyclopropylmethoxy-5-fluoro-4-methoxy-phenyl)-5H-pyrrolo[3,2-d]pyrimidine-7-carboxylic acid [4-(2-hydroxy-acetylamino)-cyclohexyl]-amide] |
